Experimental data published in patent publication US10617697B2, “Extracts of edible fungi enriched in vitamin D and compostions thereof and their use in the treatment of immune-related disorders” (GAVISH-GALILEE BIO APPLICATIONS LTD, priority 2015, dated 2020).

Tested on: immune-mediated hepatitis harboring mice
Experiment: ConA hepatitis in mice, serum liver enzymes after oral pre-treatment
Format: in vivo, C57BL/6 mice
Details: for ALT serum levels: serum 16 hours after ConA
Experimental: Male C57BL/6 mice (11-12 weeks old) were obtained from Harlan Laboratories (Jerusalem, Israel) and maintained in the Animal Core of the Hadassah-Hebrew University Medical School. Mice were administered standard laboratory chow and water ad libitum and kept in a 12 hour light/dark cycle. Animal experiments were carried out according to the guidelines of the Hebrew University-Hadassah Institutional Committee for Care and Use of Laboratory Animals and with the committee's approval.
Concanavalin A (ConA, MP Biomedicals, USA) was dissolved in 50 mM Tris pH 7, 150 mM NaCl, 4 mM CaCl2 and was injected into the tail vein at a dose of 500 μg/mouse (15 mg/kg) in the first experiment, and 400 μg/mouse in the second experiment. Mice were sacrificed 16 hours following ConA injection. Blood and liver tissue were collected for further analysis
Two consecutive experiments were conducted. In the first study, 4 groups of mice were studied (n=5-6 mice/group). Mice in control group were treated 2 hours before ConA injection with DDW (di distilled water). The first treated group received vitamin D oral supplement (1 IU of vitamin D in saline) twice daily for 3 days prior to Concanavalin A-induced immune liver damage. The second treated group was treated orally with crude freeze-dried biomass derived from Lentinula edodes (LE) edible mushrooms (7.5 mg of mushrooms) at the same timing and frequency, while the third treated group was treated with vitamin D enriched LE (7.5 mg of freeze-dried mushrooms containing 1.125 IU of vitamin D). In a subsequent study, four groups of mice (n=5-7 mice/group) were treated by the same protocol detailed above, but the frequency of the oral treatment was increased from two to three times daily.
Serum was obtained from individual mice after sacrifice. The serum aspartate aminotransferase (AST) and alanine aminotransferase (ALT) levels were determined with an automatic analyzer.

Compound: C=C1CC[C@H](O)C/C1=C/C=C1\CCC[C@]2(C)[C@@H]([C@H](C)/C=C/[C@H](C)C(C)C)CC[C@@H]12 [vitamin D, ergocalciferol]
- proportion of severe liver injury (defined as ALT>2611 U/L) (first experiment, oral twice daily for 3 days before ConA): 60%
- ALT serum levels (first experiment, oral twice daily for 3 days before ConA 500 μg/mouse): 2802 U/L
- proportion of severe liver injury (defined as ALT >2000 U/L) (second experiment, oral three times daily for 3 days before ConA): 100%
- proportion of severe liver injury by AST (defined as AST>2000 U/L) (second experiment, oral three times daily for 3 days before ConA, data not shown): 100%
- ALT serum levels (second study, oral three times daily for 3 days before ConA 400 μg/mouse): 4040 U/L
